SMILES strings stand for the structures.

This note sets out measurements from article PMC12663261 (Nature Communications, 2025).

Test [1] addresses T1, hcis-PT (DHDDS / NgBR complex) (Homo sapiens, UniProt Q86SQ9+Q96E22).
T1 sequence (Q86SQ9 1-333): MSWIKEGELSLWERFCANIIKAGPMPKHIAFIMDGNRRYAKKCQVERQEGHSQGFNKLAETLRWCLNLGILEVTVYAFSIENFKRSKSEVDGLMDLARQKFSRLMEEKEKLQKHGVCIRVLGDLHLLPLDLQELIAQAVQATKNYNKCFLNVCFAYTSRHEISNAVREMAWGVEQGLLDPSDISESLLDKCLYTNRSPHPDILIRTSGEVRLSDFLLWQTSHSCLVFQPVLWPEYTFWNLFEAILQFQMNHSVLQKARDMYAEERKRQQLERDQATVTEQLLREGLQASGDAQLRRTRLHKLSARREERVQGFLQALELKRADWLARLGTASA
T1 sequence (Q96E22 73-293): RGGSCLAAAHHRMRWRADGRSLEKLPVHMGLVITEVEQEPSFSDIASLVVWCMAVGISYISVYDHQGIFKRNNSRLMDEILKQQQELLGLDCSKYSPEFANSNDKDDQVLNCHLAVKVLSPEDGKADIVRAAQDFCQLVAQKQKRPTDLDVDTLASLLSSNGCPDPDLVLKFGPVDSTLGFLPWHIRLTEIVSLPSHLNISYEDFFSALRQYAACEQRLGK
In words: HDX-MS, ligand-bound versus apo. The note with it: 6-molar excess ligand, 5 mM MgCl2, pD 7.5, 4 °C; active site. It counts as binding.

The target in test [2] is T1, hcis-PT (DHDDS / NgBR complex). In words: fluorescence increase upon chain elongation. It counts as biochemical. The note with it: 5 uM with 100 uM IPP, 0.2 uM enzyme, 0.5 mM MgCl2, pH 7.5.

Regarding `CC(C)=CCC/C(C)=C/CC/C(C)=C/COP(=O)(O)OP(=O)(O)O` [FPP], the “HDX-MS, ligand-bound versus apo” value in test [1] is “binding of either FPP or GGPP resulted in decreased HDX throughout the active site”.

Turning to `CC(C)=CCC/C(C)=C/CC/C(C)=C/CC/C(C)=C/COP(=O)(O)OP(=O)(O)O` [GGPP], in test [1], the “HDX-MS, ligand-bound versus apo” value is reported as “binding of either FPP or GGPP resulted in decreased HDX throughout the active site”.

For the molecule `CNc1ccccc1C(=O)OC/C(C)=C/CC/C(C)=C/COP(=O)(O)OP(=O)(O)O` [MANT-O-GPP, (2E,6E)-8-O-(N-methyl-2-aminobenzoyl)-3,7-dimethyl-2,6-octandien-1-pyrophosphate], in test [2], the “fluorescence increase upon chain elongation (Ex 352 nm, Em 425 nm)” value was “MANT-O-GPP exhibits an increase in fluorescence upon chain elongation by hcis-PT”.
